Assays:
[1] = biological target: T1, plasmin (Homo sapiens, UniProt P00747); assay: Peptidase (amidolytic) activity of purified plasmin, chromogenic substrate, OD 405 nm; format: biochemical; settings: Table 2; plasmin 100 nM, substrate AGLTR-pNA; 60 min at 4° C. with LBTI 1 mg/ml, SBTI I mg/ml, aprotinin 0.075 mg/ml, benzamidine 50 mM or Futhan 0.1 mg/ml; read-out: % Residual activity, Plasmin
T1 construct: purchased Calbiochem-Novabiochem Corp (La Jolla, Calif.)
Description: (§1) The peptidase activity in plasma samples or of the purified enzymes were routinely determined at 37° C. in a 96-well plate. Each well contained 0.5 mM substrate in 100 μl of Tris-buffered saline (TBS)-EDTA buffer (50 mM Tris/150 mM NaCl/10 mM EDTA, pH 7.8) and the reaction was monitored using a microplate reader (Titertek Multiscan, Labsystems, Needham Heights, Mass.).
(§2) The enzymes C1s (100 nM), plasm in (100 nM), thrombin (100 nM), plasma kallikrein (20 nM), β-FXIIa (100 nM), trypsin (16 nM) or LTR EDTA plasma samples were incubated for 60 min at 4° C. with TBS-EDTA buffer containing either LBTI (1 mg/ml), SBTI (I mg/ml), aprotinin (0.075 mg/ml), benzamidine (50 mM), or Futhan (0.1 mg/ml), before mixing with the substrate. EDTA plasma samples from LTR were diluted 10 or 20-fold with TBS-EDTA. The chromogenic substrate AGLTR-pNA was used for all enzymes and LTR samples except C1s where the substrate S2288 was used. Based on the initial rate of increase in OD at 405 nm, the residual free enzyme level was calculated and expressed as a percentage of total activity without inhibitor added.
(§3) Ten-fold diluted normal EDTA plasma was added to each enzyme. The enzymes C1s (100 nM), plasmin (100 nM), thrombin (100 nM), plasma kallikrein (20 nM), β-FXIIa (100 nM), trypsin (16 nM) or LTR EDTA plasma samples were incubated for 60 min at 4° C. with TBS-EDTA buffer containing either C1INH (40 μg/ml), bdellin (50 μg/ml), hirudin (50 U/ml), PPACK 11(10 μM), or CTI (100 μg/ml), before adding the substrate. LTR samples were 10 or 20-fold diluted with TBS-EDTA. The chromogenic substrate AGLTR-pNA was used for all enzymes and LTP samples except C1s where the substrate S2288 was used. Based on the initial rate of increase in OD at 405 nm, the residual free enzyme was calculated and expressed as a percentage of total activity determined without inhibitor added.

[2] = system: proteinase(s) in EDTA plasma from LTR (kallikrein-like peptidase); assay: Peptidase activity in EDTA plasma from liver transplant recipients (LTR), chromogenic substrate, OD 405 nm; format: biochemical, human; settings: Table 2, substrate AGLTR-pNA, 60 min at 4° C. with LBTI 1 mg/ml, SBTI I mg/ml, aprotinin 0.075 mg/ml, benzamidine 50 mM or Futhan 0.1 mg/ml
Description: Blood samples were drawn into 5 ml EDTA tubes (Venoject; Terumo Corp., Elkton, Md.). The plasma was collected immediately by centrifugation at 2,000×g for 15 min at 4° C. The plasma samples were either processed immediately for analysis or stored at −70° C. Frozen samples were thawed at 4° C. prior to analysis.
as §1, §2, §3

[3] = system: complement (three known pathways); settings: defined levels of Futhan in combination with EDTA; cited from earlier work
[4] = biological target: T2, thrombin (Homo sapiens, UniProt P00734); assay: Peptidase (amidolytic) activity of purified thrombin, chromogenic substrate, OD 405 nm; format: biochemical; settings: Table 2; thrombin 100 nM, substrate AGLTR-pNA; 60 min at 4° C. with LBTI 1 mg/ml, SBTI I mg/ml, aprotinin 0.075 mg/ml, benzamidine 50 mM or Futhan 0.1 mg/ml; read-out: % Residual activity, Thrombin
T2 construct: purchased Calbiochem-Novabiochem Corp (La Jolla, Calif.)

[5] = biological target: T3, plasma kallikrein (Homo sapiens, UniProt P03952); assay: Peptidase (amidolytic) activity of purified plasma kallikrein, chromogenic substrate, OD 405 nm; format: biochemical; settings: Table 2; plasma kallikrein 20 nM, substrate AGLTR-pNA; 60 min at 4° C. with LBTI 1 mg/ml, SBTI I mg/ml, aprotinin 0.075 mg/ml, benzamidine 50 mM or Futhan 0.1 mg/ml; read-out: % Residual activity, Plasma Kallikrein
T3 construct: The light chain of kallikrein contains the enzymatic domain; purchased Calbiochem-Novabiochem Corp (La Jolla, Calif.)
T3 sequence (P03952 391-638 limits assumed): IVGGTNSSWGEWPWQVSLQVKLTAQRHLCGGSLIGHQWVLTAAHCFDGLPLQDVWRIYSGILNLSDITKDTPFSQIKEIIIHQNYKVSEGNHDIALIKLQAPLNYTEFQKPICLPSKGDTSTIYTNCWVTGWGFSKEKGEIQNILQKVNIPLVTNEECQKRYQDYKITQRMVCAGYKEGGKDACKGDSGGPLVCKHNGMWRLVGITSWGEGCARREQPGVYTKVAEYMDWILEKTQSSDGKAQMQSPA
T3 sequence (P03952 20-390 partner limits assumed): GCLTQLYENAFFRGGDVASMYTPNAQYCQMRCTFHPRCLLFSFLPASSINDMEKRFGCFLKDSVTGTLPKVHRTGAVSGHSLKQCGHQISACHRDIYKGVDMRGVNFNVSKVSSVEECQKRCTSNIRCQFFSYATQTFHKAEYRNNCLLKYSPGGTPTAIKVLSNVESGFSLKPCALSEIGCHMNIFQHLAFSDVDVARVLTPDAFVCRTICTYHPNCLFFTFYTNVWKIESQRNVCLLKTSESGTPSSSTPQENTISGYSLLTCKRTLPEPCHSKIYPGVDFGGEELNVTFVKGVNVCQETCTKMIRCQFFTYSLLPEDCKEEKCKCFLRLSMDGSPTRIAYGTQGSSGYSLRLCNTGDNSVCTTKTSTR
Description: as §1
(§4) […] EDTA plasma samples from LTR were diluted 10 or 20-fold with TBS-EDTA. The chromogenic substrate AGLTR-pNA was used for all enzymes and LTR samples except C1s where the substrate S2288 was used. Based on the initial rate of increase in OD at 405 nm, the residual free enzyme level was calculated and expressed as a percentage of total activity without inhibitor added.
(§5) Ten-fold diluted normal EDTA plasma was added to each enzyme. […] LTR samples were 10 or 20-fold diluted with TBS-EDTA. The chromogenic substrate AGLTR-pNA was used for all enzymes and LTP samples except C1s where the substrate S2288 was used. Based on the initial rate of increase in OD at 405 nm, the residual free enzyme was calculated and expressed as a percentage of total activity determined without inhibitor added.

[6] = biological target: T4, β-Factor XIIa (β-FXIIa) (Homo sapiens, UniProt P00748); assay: Peptidase (amidolytic) activity of purified β-FXIIa, chromogenic substrate, OD 405 nm; format: biochemical; settings: Table 2; β-FXIIa 100 nM, substrate AGLTR-pNA; 60 min at 4° C. with LBTI 1 mg/ml, SBTI I mg/ml, aprotinin 0.075 mg/ml, benzamidine 50 mM or Futhan 0.1 mg/ml; read-out: % Residual activity, β-FXIIa
T4 construct: β-Factor XIIa (β-FXIIa) was kindly provided by Dr. Mary J. Heeb; gift of Dr. Mary J. Heeb, The Scripps Research Institute
T4 sequence (P00748 373-615 limits assumed, other chains not shown): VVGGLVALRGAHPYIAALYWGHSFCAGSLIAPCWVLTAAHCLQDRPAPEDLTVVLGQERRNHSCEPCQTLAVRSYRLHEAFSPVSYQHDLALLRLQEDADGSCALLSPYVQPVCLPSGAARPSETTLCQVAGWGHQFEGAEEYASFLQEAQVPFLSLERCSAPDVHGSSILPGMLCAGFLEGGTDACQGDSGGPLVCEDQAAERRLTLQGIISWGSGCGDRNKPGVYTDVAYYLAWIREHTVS
Description: as §1, §4, §5

[7] = system: all of the enzymes examined; assay: General serine proteinase inhibitors on selected proteinases (summary over the enzymes); format: biochemical; settings: Table 2; benzamidine 50 mM, Futhan 0.1 mg/ml
Description: as §1, §2

[8] = system: trypsin; assay: Peptidase (amidolytic) activity of purified trypsin, chromogenic substrate, OD 405 nm; format: biochemical; settings: Table 2; trypsin 16 nM, substrate AGLTR-pNA; 60 min at 4° C. with LBTI 1 mg/ml, SBTI I mg/ml, aprotinin 0.075 mg/ml, benzamidine 50 mM or Futhan 0.1 mg/ml
Description: as §1, §2

[9] = biological target: T5, C1s (Homo sapiens, UniProt P09871); assay: Peptidase (amidolytic) activity of purified C1s, chromogenic substrate, 96-well plate, OD 405 nm; format: biochemical; settings: Table 2; C1s 100 nM, substrate S2288; 60 min at 4° C. with LBTI 1 mg/ml, SBTI I mg/ml, aprotinin 0.075 mg/ml, benzamidine 50 mM or Futhan 0.1 mg/ml; % of total activity without inhibitor; read-out: % Residual activity, C1s
T5 construct: purchased Advanced Research Technologies (San Diego, Calif.)
T5 sequence (P09871 438-688 limits assumed): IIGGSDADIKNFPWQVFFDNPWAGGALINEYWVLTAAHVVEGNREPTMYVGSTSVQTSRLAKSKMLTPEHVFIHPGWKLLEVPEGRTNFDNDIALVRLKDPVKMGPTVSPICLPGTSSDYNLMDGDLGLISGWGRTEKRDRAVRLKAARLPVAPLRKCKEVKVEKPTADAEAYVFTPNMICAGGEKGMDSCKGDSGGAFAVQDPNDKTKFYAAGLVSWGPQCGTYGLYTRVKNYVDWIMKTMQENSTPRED
T5 sequence (P09871 16-437 partner limits assumed): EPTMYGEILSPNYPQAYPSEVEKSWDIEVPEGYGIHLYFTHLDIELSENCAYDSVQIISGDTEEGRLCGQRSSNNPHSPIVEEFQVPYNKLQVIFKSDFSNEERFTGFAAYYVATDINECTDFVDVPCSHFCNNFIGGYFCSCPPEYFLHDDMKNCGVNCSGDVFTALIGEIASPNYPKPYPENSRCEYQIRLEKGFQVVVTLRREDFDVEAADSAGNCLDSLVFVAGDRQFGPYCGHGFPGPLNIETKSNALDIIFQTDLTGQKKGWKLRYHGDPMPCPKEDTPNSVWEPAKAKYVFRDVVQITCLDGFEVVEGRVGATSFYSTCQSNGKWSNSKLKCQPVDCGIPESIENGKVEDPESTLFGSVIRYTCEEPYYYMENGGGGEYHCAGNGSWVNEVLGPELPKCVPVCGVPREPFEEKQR
Description: as §1, §2, §3

T1 sequence (P00747 581-810 limits assumed, species assumed): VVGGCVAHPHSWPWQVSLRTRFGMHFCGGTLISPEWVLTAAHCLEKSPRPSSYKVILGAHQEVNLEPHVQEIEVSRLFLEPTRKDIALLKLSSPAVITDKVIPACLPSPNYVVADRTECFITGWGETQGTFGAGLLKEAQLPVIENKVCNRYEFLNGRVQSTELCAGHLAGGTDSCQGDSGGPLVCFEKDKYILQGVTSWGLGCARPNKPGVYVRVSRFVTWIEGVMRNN
T1 sequence (P00747 97-580 partner limits assumed, species assumed): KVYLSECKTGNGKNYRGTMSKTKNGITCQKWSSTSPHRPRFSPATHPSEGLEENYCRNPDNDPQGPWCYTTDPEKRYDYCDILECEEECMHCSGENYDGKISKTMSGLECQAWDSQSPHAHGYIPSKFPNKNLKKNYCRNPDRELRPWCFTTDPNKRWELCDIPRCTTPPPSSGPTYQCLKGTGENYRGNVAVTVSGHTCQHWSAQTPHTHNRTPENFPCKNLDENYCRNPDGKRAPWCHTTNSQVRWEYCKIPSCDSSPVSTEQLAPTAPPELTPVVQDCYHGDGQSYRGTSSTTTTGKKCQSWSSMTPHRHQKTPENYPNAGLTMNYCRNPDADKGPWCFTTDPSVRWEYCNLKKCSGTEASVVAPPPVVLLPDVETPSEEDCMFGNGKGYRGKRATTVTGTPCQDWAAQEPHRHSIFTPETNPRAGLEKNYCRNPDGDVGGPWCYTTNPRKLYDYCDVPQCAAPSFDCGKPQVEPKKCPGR

N=C(N)c1ccc2cc(OC(=O)c3ccc(N=C(N)N)cc3)ccc2c1 [Futhan, nafamostat mesilate]
remaining activity at 100 µg/mL [1]: -1.5% | % Residual activity, LTR 1 ([2]; LTR 1 EDTA plasma diluted 10 or 20-fold): −0.7% | % Residual activity, LTR 2 ([2]; LTR 2 EDTA plasma diluted 10 or 20-fold): 0.2% | % Residual activity, LTR 3 ([2]; LTR 3 EDTA plasma diluted 10 or 20-fold): −1.1% | Prevention of in vitro activation of complement in plasma samples, in words [3]: can prevent the in vitro activation of complement by any of the three known pathways | remaining activity at 100 µg/mL [4]: 0.8% | remaining activity at 100 µg/mL [5]: 1.1% | remaining activity at 100 µg/mL [6]: 3.8% | Inhibition of all of the enzymes examined, in words [7]: very efficient inhibitors for all of the enzymes examined | % Residual activity, Trypsin [8]: −0.5% | remaining activity at 100 µg/mL [9]: 4.6%
